Assay results reported in patent publication US20200009221A1, “METHODS FOR INHIBITING NECROSIS” (priority 2010, published 2020).
Residues, ends and D or L forms follow the SMILES beside them. *: point of attachment. MeOSuc = COC(=O)CCC(=O)*; CH2Cl = ClC*

How the values were obtained:
Format in all cases: cell-based
[1] = system: U937 cells; test: KCN (15 mM)-induced necrosis in U937 cells, LDH release assay, Humanin derivative with Elastase inhibitor III (Example 2); conditions: 7 hours
Experimental: (§1) The U937 cells are p53 minus monocytic cell line. The cells were grown at 37° C. in the presence of 5% CO2 in RPMI-1640 medium supplemented with 10% heat-inactivated fetal bovine serum (FCS), 2 Mm glutamine, 100 μg/ml penicillin, and 100 μg/ml streptomycin. The cells were split every third day.
(§2) U937 cells were cultured in complete RPMI-1640 medium, washed once and seeded at 4.5×10^5 cells/ml in glucose free medium 1 hour before treatment. Humanin or its derivatives of SEQ ID MOs 1-6 and Elastase inhibitor III (EI-III) and vehicle were added 30 minutes before the addition of KCN (15 mM). Following the treatment, the cells were incubated for 7 hours and cell death was measured via the LDH release assay.
(§3) The amount of LDH released from lysed cells is a sensitive measure of cell death. In this study, necrotic cell death was measured in 96-well plates using Promega's CytoTox 96 Non-Radioactive Cytotoxicity Assay kit, which accurately and rapidly measures cell death by quantitating the release of lactate dehydrogenase (LDH), a stable cytosolic enzyme from lysed cells.
(§4) At the end of each experiment, the cells were centrifuged at 240×g for 10 minutes at room temperature. Next, the supernatant was collected and 50 μL aliquots were taken for the LDH release assay. The LDH content from cells lysed in 0.1% Tryton X-100 for 10-15 minutes was used as a measure for total LDH content. The LDH released in the treatment (after subtracting the blank measure) was used for measuring necrotic cell death as a percentage from total LDH. A measurement of the absorbance value at 490 nm was preformed by ELISA READER, 30 minutes after the addition of the LDH reaction solution.

[2] = system: U937 cells; test: KCN (5 mM)-induced necrosis in U937 cells, LDH release assay, Humanin derivative with Mimosine (Example 3); conditions: 7 hours
Experimental: as §1
as §2, with “Mimosine” for “Elastase inhibitor III (EI-III)”, “(5” for “(15”
as §3, §4

[3] = system: U-937 cells; test: KCN-induced necrosis in U-937 cells, LDH release (Example 1); conditions: 10 μM peptide, LDH release after 7 hours (FIG. 1)
Experimental: FIGS. 1A-1B. […] LDH release was measured after 7 hours (see, FIG. 1A) % LDH release with the crude data; (see, FIG. 1B) The amount of LDH released of control cells was subtracted from all treatments, P*<0.02. […] The effects of HN and its derivatives on necrotic cell death induced by staurosporine/oligomicyn in PC12 cells are depicted in FIG. 4 (by LDH release) and FIG. 5 (ethydium bromide and acridine orange staining).

[4] = system: PC12 cells; test: KCN-induced necrosis in PC12 cells, LDH release; conditions: LDH release after 5 hours (FIG. 2 and FIG. 3)
Experimental: FIGS. 2A-2B. […] LDH release was measured after 5 hours (see, FIG. 2A) % LDH release with the crude data; (see, FIG. 2B) The amount of LDH released from control cells was subtracted from all treatments, P*<0.05. FIG. 3. Is a bar graph showing the effect of different HN17 concentrations on KCN-induced necrosis in PC12 cells as assessed by the determination of LDH release. PC12 cells were treated with or without 7 mM KCN for 5 hours in the presence or absence of different concentrations of HN17 (1-30 μM), and then LDH release from the cells was determined, P*<0.04. […] The effects of HN and its derivatives on necrotic cell death induced by staurosporine/oligomicyn in PC12 cells are depicted in FIG. 4 (by LDH release) and FIG. 5 (ethydium bromide and acridine orange staining).

COC(=O)CCC(=O)N[C@@H](C)C(=O)N[C@@H](C)C(=O)N1CCC[C@H]1C(=O)N[C@H](C(=O)CCl)C(C)C [EI-III, HLE Inhibitor MeOSuc-AAPV-CMK] (MeOSuc-AAPV-CH2Cl)
impact on necrotic cell death induced by KCN ([1]; EI-III at 50 μM): no impact
inhibition of cell death by necrosis ([1]; EI-III at 100 μM): 75%
inhibition of cell death by necrosis ([1]; EI-III at 300 μM): 75%

NC(Cn1ccc(=O)c(O)c1)C(=O)O (centres unmarked) [mimosine, Mimosine, reference compound]
inhibition of necrotic cell death ([2]; mimosine at 30 μM): no inhibition
inhibition of necrotic cell death ([2]; mimosine at 70 μM): no inhibition
inhibition of cell death by necrosis ([2]; mimosine at 300 μM): 12%

MAPAGASCLLLLTGEIDLPVKRRA [AGA-HNG, Humanin derivative]
impact on necrotic cell death induced by KCN ([1]; AGA-HNG at 1 μM): no impact
impact on necrotic cell death induced by KCN ([1]; AGA-HNG at 10 μM): no impact
protection against KCN-induced necrotic cell death as measured by LDH release [3]: conferred protection

MAPRGFSCLLLLTGEIDLPVKRRA [HNG, Humanin derivative]
inhibition of necrotic cell death ([2]; HNG at 1 μM): no inhibition
inhibition of necrotic cell death ([2]; HNG at 10 μM): no inhibition
inhibition of necrotic cell death ([2]; HNG at 301 μM): no inhibition

PRGFSCLLLLTSEIDLP [HN17, Humanin derivative; the short name HN17 is also printed for AGA-C8R-HNG17]
protection against KCN-induced necrotic cell death as measured by LDH release [4]: confers protection
protection against KCN-induced necrotic cell death as measured by LDH release [3]: conferred protection
